From patent US6878736B1, “Histamine H3 receptor ligands” (James Black Foundation Limited, priority 1998, dated 2005) come the findings set out here.

Counter-ions that a name gives are not always drawn.

Assay [1] has as its target T1, Histamine H3 receptor (Cavia porcellus, UniProt Q9JI35). As to the kind of experiment: Histamine H3 radioligand binding assay, guinea pig cortex ([3H]-R-α-methylhistamine). The following applies: guinea pig cortex membranes, competition with 1 nM [3H]-R-α-methylhistamine; for Ki: read-out: pKi (Guinea pig cortex) (converted). As to the method: The compounds of the invention were also tested in a guinea pig cortex binding assay, as follows:
Histamine H3 Radioligand Binding Assay—Guinea Pig Cortex
Male Dunkin Hartley guinea pigs (200-300 g) were used. The whole brain was removed and immediately placed in ice-cold 20 mM Hepes-NaOH buffer (pH7.4 at 21±3° C.). The cortex was dissected, weighed and homogenised in ice-cold 20 mM Hepes-NaOH buffer (pH7.4 at 21±3° C.) (50 ml/guinea-pig cortex) using a polytron (Kinematica AG; PT-DA 3020/2TS, 3×3 s). The homogenate was centrifuged at 100×g for 5 min and the supernatants pooled and stored at 4° C. The pellets were rehomogenised in fresh ice-cold buffer (80 ml) and recentrifuged (100×g for 5 min). The supernatants were pooled and pellets rehomogenised and recentrifuged (100×g for 5 min). All supernatants were pooled and centrifuged at 39,800×g for 12 min at 4° C. The final pellet was resuspended in 20 mM Hepes-NaOH buffer (pH7.4 at 21±3° C.) to a tissue concentration of 7.5 mg.ml^−1, using a teflon-in-glass homogeniser.
Guinea pig cortex membranes (400 μl) were incubated for 165 min at 21±3° C. in a final volume of 500 μl with 20 mM Hepes-NaOH buffer containing [^3H]-R-α-methylhistamine (50 μl; 1 nM) and competing compound. Total and non-specific binding of [^3H]-R-α-methylhistamine were defined using 50 μl of buffer and 50 μl of 10 μM thioperamide, respectively. The assay was terminated by rapid filtration through Whatman GF/B filters, presoaked (2 hr) in 0.1% polyethyleneimine, using a Brandell Cell Harvester. The filters were washed (3×3 ml) with ice-cold 50 mM Tris-HCl (pH6.9 at 21±3° C.), transferred into scintillation vials, 5 ml liquid scintillation cocktail was added and after 4 hours the bound radioactivity was determined by counting (4 min) in a Beckman liquid scintillation counter.
Data are analysed using GraphPad prism and the general equation for a competition curve with variable Hill slope (nH). [formula] where • X is the log concentration of competing compound, • Y is the binding obtained at each concentration of X, • pIC50 is the concentration of the competitor required to compete for half of the specific binding.
The IC50 is converted to the K1 using the Cheng Prusoff equation, K1=IC50/(1+(L/KD)) where • IC50 is the concentration of competitor required to compete for half the specific binding, • L is the radioligand concentration used, • KD is the equilibrium dissociation constant for the radioligand determined by saturation experiments.

The target of assay [2] is T1, Histamine H3 receptor. As to the kind of experiment: Histamine H3 functional assay, guinea pig ileum (ileal longitudinal muscle, myenteric plexus). Set-up: species or system tissue. To be noted: antagonist affinity from rightward shift of R-(α)-methylhistamine E/[A] curves (Schild), typical variance ±0.15 log units; for Kb: read-out: pKb (Guinea pig ileum) (converted). As to the method: • 1. J. Med. Chem 1994, 314. • 2. WO 97/29092 Histamine H3 Functional Assay—Guinea Pig Ileum
The biological activity of the compounds of the examples was measured using the ileal longitudinal muscle, myenteric plexus assay described by Paton and Aboo Zar (J. Physiol. 1968, 194, 13-33). Male Dunkin-Hartley guinea pigs (250-300 g) were employed. Briefly, a 50 cm portion of ileum proximal to the caecum was removed, after discarding the terminal 20 cm. Ileal segments (3 cm) were cleaned by passing Krebs-Henseleit buffer containing 3 μM mepyramine gently through the ileum using a Pasteur pipette (size: 13.8 cm length, 0.65 cm diameter). To avoid unnecessary damage to the tissue, Krebs-Henseleit buffer was passed through the ileal segment, while it was lying horizontally on a petri dish. Therefore, the ileum was not over-distended and the buffer flowed through with ease. Each segment was then passed over a Pasteur pipette and the longitudinal muscle layer and adhering myenteric plexus was teased away using moist cotton wool, by stroking tangentially away from the mesenteric attachment. The tissues were suspended in 20 ml organ baths containing Krebs-Henseleit buffer at 37±1° C. and gassed with […]. The tissues were ligated to two parallel stainless steel wires, situated between two platinum electrodes (0.76 cm length, 0.06 cm diameter). All measurements were recorded isometrically (Grass FTO3 transducer). Following an initial loading tension of 1 g, the tissues were stimulated with electrical pulses at a frequency of 0.1 Hz and a pulse duration of 0.5 msec, as described by Kosterlitz & Watt (Br. J. Pharmacol. 1968, 266276). Initially, the tissues were stimulated at supramaximal (1.3 fold times maximal) voltage for a period of 30 min and then the tissues were washed and re-stimulated. A “sighter dose” of the selective histamine H3-receptor agonist, R-(α)-methylhistamine (0.3 μM) (Arrang et al. Nature, 1987, 117-123), was administered. Upon generation of response, the “sighter dose” was removed from the tissues by “washout” (6 washes over 60 min) and during this period the electrical stimulation was switched off. The tissues were then re-stimulated and allowed to stabilise prior to the addition of drug treatments, which were allocated on a randomised block basis to the organ baths. Following the incubation period, a single cumulative E/[A] curve was obtained. The experimental E/[A] curve data was expressed as the percentage inhibition of the peak height of electrically-stimulated contraction. Antagonist affinity values were calculated from the degree of rightward shift of the R-(α)-methylhistamine E/[A] curves using Schild's methods (Arunlakshana & Schild Br. J. Pharmacol. 1959, 48-58). Typical variance in this assay is ±0.15 log units.

T1 sequence (Q9JI35 whole entry): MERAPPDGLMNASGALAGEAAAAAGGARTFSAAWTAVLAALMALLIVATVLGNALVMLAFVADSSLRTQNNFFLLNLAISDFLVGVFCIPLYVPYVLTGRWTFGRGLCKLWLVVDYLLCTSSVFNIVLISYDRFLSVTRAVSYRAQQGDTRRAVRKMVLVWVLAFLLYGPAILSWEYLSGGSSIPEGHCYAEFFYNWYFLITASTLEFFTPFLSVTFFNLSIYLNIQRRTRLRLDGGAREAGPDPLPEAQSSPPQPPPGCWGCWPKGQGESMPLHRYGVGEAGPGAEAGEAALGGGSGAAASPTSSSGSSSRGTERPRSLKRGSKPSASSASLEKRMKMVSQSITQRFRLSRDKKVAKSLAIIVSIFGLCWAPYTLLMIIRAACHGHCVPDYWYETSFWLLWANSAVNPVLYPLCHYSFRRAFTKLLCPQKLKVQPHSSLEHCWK

“N-Biphenyl-4-yl-methyl-N′-(5-pyrrolidin-1-yl-pentyl)-guanidine bis-hydrochloride [Example 55]”: the “pKi (Guinea pig cortex)” value in assay [1] is reported as 7.5. Moreover, in assay [2], the “pKb (Guinea pig ileum)” value worked out at 6.6. With `CN1CC(OCc2ccc(Cl)cc2)CC1CCCNS(=O)(=O)NCc1ccc(Cl)cc1` (stereo not drawn) [Example 133, N-(4-Chlorobenzyl)-N′-(3-(4R-(4-chlorobenzyloxy)-1-methyl-pyrrolidin-2S-yl)-propyl)-sulfamide], the Ki in assay [1] was 2510 nM. Also, the Kb in assay [2] was > 3160 nM.

In the case of `COc1ccc(C/N=C(\N)NCCCN2CCCC2)cc1` [Example 3, N-(4-Methoxybenzyl)-N′-(3-pyrrolidin-1-yl-propyl)-guanidine bis-hydrochloride], the Ki in assay [1] was 79.4 nM. The Kb in assay [2] was 794 nM.

Regarding `Cc1ccccc1CNC(=N)NCCCCCN1CCCC1` [Example 48, N-(2-Methylbenzyl)-N′-(5-pyrrolidin-1-yl-pentyl)-guanidine bis-hydrochloride], the Ki in assay [1] is 3.16 nM. The Kb in assay [2] is 25.1 nM. On the same counts, the results for `CN1CCC[C@H]1CCCN(CCCN1C(=O)c2ccccc2C1=O)S(=O)(=O)NCc1ccc(Cl)cc1` [Example 125, N-(4-Chlorobenzyl)-N′-(3-phthalimido-propyl)-N′-(3-(1-methyl-pyrrolidin-2S-yl)propyl)-sulfamide] are 316 nM and > 3160 nM.

Take `N=C(N)N(CCCCCCCN1CCCC1)Cc1ccc(Cl)cc1` [Example 71, N-(4-Chlorobenzyl)-N-(7-pyrrolidin-1-yl-heptyl)-guanidine bis-hydrochloride]: the Kb in assay [2] is 3.98 nM.

On to `Cl.Cl.N=C(NCCCCN1CCCC1)NCC1CCCCC1` [Example 40, N-Cyclohexyl-methyl-N′-(4-pyrrolidin-1-yl-butyl)-guanidine bis-hydrochloride], for which, in assay [1], the “pKi (Guinea pig cortex)” value was 8.4. Also, the “pKb (Guinea pig ileum)” value in assay [2] is 7.4. On to `N=C(N)N(CCCCCCCCN1CCCC1)Cc1ccc(Cl)cc1` [Example 79, N-(4-Chlorobenzyl)-N-(8-pyrrolidin-1-yl-octyl)-guanidine bis-hydrochloride], for which, in assay [2], the Kb is 7.94 nM. With `CN1CCC[C@H]1CCCNS(=O)(=O)CCC1CCCCC1` [Example 142, N-(3-(1-Methyl-pyrrolidin-2S-yl)-propyl)-2-cyclohexyl-ethanesulfonamide], in assay [1], the Ki is 631 nM. In addition, in assay [2], the Kb is 2000 nM. In the case of `N=C(NCCCN1CCCC1)NCc1ccccc1` [Example 8, N-Benzyl-N′-(3-pyrrolidin-1-yl-propyl)-guanidine bis-hydrochloride], the Kb in assay [2] is 631 nM.

For the compound `CN1CCCC1CCCCNS(=O)(=O)NCc1ccc(Cl)cc1` (stereo not drawn) [Example 116, N-(4-Chlorobenzyl)-N′-(4-(1-methyl-pyrrolidin-2S-yl)-butyl)-sulfamide], the Ki in assay [1] is 126 nM. Further, the Kb in assay [2] is 200 nM. Turning to `CN1CCC[C@H]1CCCN(CCCc1ccc(Cl)cc1)S(=O)(=O)NCc1ccc(Cl)cc1` [Example 131, N-(4-Chlorobenzyl)-N′-(3-(4-chlorophenyl)propyl)-N′-(3-(1-methyl-pyrrolidin-2S-yl)propyl)-sulfamide], the Ki in assay [1] is 1000 nM. The Kb in assay [2] is > 3160 nM. Consider `CN1C[C@H](O)C[C@@H]1CCCNS(=O)(=O)NCc1ccc(Cl)cc1` [Example 132, N-(4-Chlorobenzyl)-N′-(3-(4R-hydroxy-1-methyl-pyrrolidin-2S-yl)-propyl)-sulfamide], for which the “pKi (Guinea pig cortex)” value in assay [1] turned out to be 6.9. In assay [2], the “pKb (Guinea pig ileum)” value worked out at 5.8. For the compound `CN1CCCC1CCNS(=O)(=O)c1ccc2ccccc2c1` (stereo not drawn) [Example 89, N-(2-(1-Methyl-pyrrolidin-2-yl)-ethyl)-2-naphthalenesulfonamide], the Ki in assay [1] was 100 nM. Besides, in assay [2], the Kb was 631 nM. For `Cl.Cl.N=C(NCCCCCN1CCCCC1)NCC12CC3CC(CC(C3)C1)C2` [Example 60, N-Adamantan-1-yl-methyl-N′-(5-piperidin-1-yl-pentyl)-guanidine bis-hydrochloride], the “pKi (Guinea pig cortex)” value in assay [1] worked out at 8.0. Also, the “pKb (Guinea pig ileum)” value in assay [2] is 8.1.

On to `N=C(NCCCCN1CCCC1)NCc1ccc(C2CCCCC2)cc1` [Example 56, N-(4-Cyclohexylbenzyl)-N′-(4-pyrrolidin-1-yl-butyl)-guanidine bis-hydrochloride], for which, in assay [1], the Ki was 20 nM. The Kb in assay [2] is 63.1 nM.

For `CN1CCC[C@H]1CCCNS(=O)(=O)CCCc1ccc(Cl)cc1` [Example 103, N-(3-(1-Methyl-pyrrolidin-2S-yl)-propyl)-3-(4-chlorophenyl)-propanesulfonamide], the Ki in assay [1] is 126 nM. Further, the Kb in assay [2] is 316 nM.

Regarding `N=C(NCCCCCN1CCCC1)NCCCC12CC3CC(CC(C3)C1)C2` [Example 38, N-(3-Adamantan-1-yl-propyl)-N′-(5-pyrrolidin-1-yl-pentyl)-guanidine bis-hydrochloride], the Ki in assay [1] was 31.6 nM. For the same compound, in assay [2], the Kb was 63.1 nM. `N=C(NCCCN1CCCC1)NCc1ccc(C(F)(F)F)cc1` [Example 5, N-(4-(Trifluoromethyl)benzyl)-N′-(3-pyrrolidin-1-yl-propyl)-guanidine bis-hydrochloride]: the Kb in assay [2] was 794 nM. For `CCCCNC(=N)NCCCCCN1CCCC1` [Example 65, N-Butyl-N′-(5-pyrrolidin-1-yl-pentyl)-guanidine], the Ki in assay [1] was 5.01 nM. For the same compound, the Kb in assay [2] was 79.4 nM. With `CN1CCC[C@H]1CCCNS(=O)(=O)CCc1ccc(Cl)cc1` [Example 102, N-(3-(1-Methyl-pyrrolidin-2S-yl)-propyl)-2-(4-chlorophenyl)-ethanesulfonamide], the Ki in assay [1] is 63.1 nM. The Kb in assay [2] was 316 nM. As to `CN1CCC[C@H]1CCCNS(=O)(=O)c1ccc(Cl)cc1` [Example 98, N-(3-(1-Methyl-pyrrolidin-2S-yl)-propyl)-(4-chlorophenyl)-sulfonamide], in assay [1], the Ki is 794 nM. Also, the Kb in assay [2] was 794 nM. For `N=C(N)N(CCCCN1CCCC1)Cc1ccc(Cl)cc1` [Example 68, N-(4-Chlorobenzyl)-N-(4-pyrrolidin-1-yl-butyl)-guanidine bis-hydrochloride], the Kb in assay [2] is 50.1 nM. Take `N=C(N)N(CCCCCCCCCN1CCCC1)Cc1ccc(Cl)cc1` [Example 80, N-(4-Chlorobenzyl)-N-(9-pyrrolidin-1-yl-nonyl)-guanidine bis-hydrochloride]: in assay [2], the Kb was 10 nM.
